# According to publication PMC6429055, “Synthesis, Photochemical and In Vitro Cytotoxic Evaluation of New Iodinated Aminosquaraines as Potential Sensitizers for Photodynamic Therapy” (Molecules, 2019):
# Where two headings read alike, the source gives them in different places.
# Key:
# [1] = Singlet oxygen formation quantum yield (phosphorescence emission at ~1270 nm vs phenazine standard); format: physicochemical; conditions: In CHCl3, excitation 337 nm
# Description: The evaluation of the photosensitizing efficiency of the aminosquaraine dyes was performed in chloroform, by determining the singlet oxygen formation quantum yields (ΦΔ). Phenazine was used as standard. The phosphorescence emission of singlet oxygen generated by the sensitizers at approximately 1270 nm is presented in Figure 2 and the determined quantum yields are summarized in Table 1.
# These ΦΔ values were obtained by a simple comparison of the integrated areas determined for the standard and samples, using the same OD at the excitation wavelength. For each determination an average of 100 phosphorescence spectra were used. […] As previously reported, the amino group in the squaric ring enhances singlet oxygen generation efficiency when compared with the unsubstituted zwitterionic dye 3. […] This is related with the intramolecular charge transfer (ICT) mechanism which provides a non-radiative deactivation pathway, therefore decreasing the singlet oxygen formation quantum yields ([44] and references therein).
# The singlet oxygen measurement set-up was assembled in our laboratory as previously described. As an excitation source we used a nitrogen laser, excitation wavelength = 337 nm. The detector was an InGaAs CCD (model i-Dus from Andor Technology Limited, Belfast, UK) working at low temperature (−60 °C) coupled to a fixed spectrograph, model Shamrock 163i, also from Andor. Phenazine (standard) was used at O.D. = 0.6 in chloroform. The ΦΔ values were obtained by comparing the total area of the emission spectra for the reference and for each dye under study in the same solvent, with the same optical density at the excitation wavelength. […].
# [2] = Fluorescence quantum yield; format: physicochemical; conditions: In CHCl3
# Source text: As expected, due to the covalent link between iodine and the aminosquaraine, a strong heavy atom effect can be observed in all cases. This effect is emphasized in the case of the bis(hydroxyethyl)amino substituent group (dye 5c).
# [3] = system: NCI-H460 (non-small cell lung carcinoma); experiment: SRB cytotoxicity, dark and after irradiation (photodynamic treatment); format: cell-based; conditions: Homo sapiens, mean ± SD
# Description: (§1) Stock solutions of the aminosquaraines 5a–e with different concentrations (0.0375 μM, 0.15 μM, 0.6 μM, 6 μM, 12 μM, 25 μM, 50 μM, 500 μM) were prepared using a solution of 3% DMSO in DMEM and kept at−20 °C. Prior to the in vitro assays diluted solutions were prepared with the same solvent to obtain solutions with final concentrations of 0.03 μM, 0.3 μM, 0.6 μM, 1.25 μM, 2.5 μM and 25 μM.
# (§2) The cytotoxicity of the squaraine dyes was tested in the dark and under irradiation. For irradiation of the cells a halogen/tungsten lamp (24 V and 250 W, Osram, Carnaxide, Portugal) was used with a fluence rate of […] (measured with an ILT 1400-A radiometer equipped with a SEL033 detector, ILT, Peabody, MA, USA). The cells were irradiated continuously for 30 min. A 3% aqueous solution of K2Cr2O7 was placed between the lamp and the cells as a liquid cut off filter to remove light of wavelength shorter than ~500 nm. The temperature to which the cells were exposed was carefully monitored to guarantee cell viability.
# (§3) Four human tumor cell lines were used: MCF-7 (breast adenocarcinoma), NCI-H460 (non-small cell lung carcinoma), HeLa (cervical carcinoma) and HepG2 (hepatocellular carcinoma) from DSMZ (Leibniz-Institut DSMZ-Deutsche Sammlung von Mikroorganismen und Zellkulturen GmbH, Mönchengladbach, Germany). Cells were routinely maintained as adherent cell cultures in RPMI-1640 medium containing 10% heat-inactivated FBS and 2 mM glutamine at […], in a humidified air incubator containing 5% CO2. Each cell line was plated at an appropriate density (7.5 × 10^3 cells/well for MCF-7 and NCI-H460, and 1.0 × 10^4 cells/well for HeLa and HepG2) in 96-well plates, allowed to attach for 24 h and then treated with different concentrations of each squaraine dye. Controls were set with the cells in the absence of the dyes in 3% DMSO in DMEM and in the growth medium only. After the incubation step (24 h), the cells were submitted to the photodynamic treatment for 30 min. Controls in the absence of light were performed on every test. Neither DMSO alone, nor light alone, nor the combination of both induced toxicity on the cells. Then, the growth medium was changed and the cells were incubated for further 24 h. Following this incubation period, the adherent cells were fixed by adding cold 10% TCA (100 µL) and incubated for 60 min at 4 °C. Plates were then washed with deionized water and subsequently dried. SRB solution (0.1% in 1% acetic acid, 100 µL) was then added to each plate well and incubated for 30 min at room temperature. Unbound SRB was removed by washing with 1% acetic acid. Plates were air dried, the bound SRB was solubilized with 10 mM Tris (200 µL) and the absorbance was measured at 540 nm in an ELX800 Microplate Reader (Bio-Tek Instruments Inc., Winooski, VT, USA). The results were expressed in GI50 values, which correspond to the concentration of dye that causes 50% inhibition of cell growth. All the assays were performed in duplicate. Ellipticine was used as standard.
# [4] = system: HepG2 (hepatocellular carcinoma); experiment: as above; format: cell-based; conditions: Homo sapiens, mean ± SD
# Description: as §1, §2, §3
# [5] = system: HeLa (cervical carcinoma); experiment: as above; format: cell-based; conditions: Homo sapiens, mean ± SD
# Description: as §1, §2, §3
# [6] = system: MCF-7 (breast adenocarcinoma); experiment: as above; format: cell-based; conditions: Homo sapiens, mean ± SD
# Description: as §1, §2, §3
# [7] = SRB cytotoxicity in non-tumor porcine liver primary cell culture, dark and after irradiation; format: cell-based; conditions: pig, PLP2 porcine liver primary cell culture (non-tumor), non-tumor cells, mean ± SD
# Description: as §1, §2
# A cell culture was prepared from a freshly harvested porcine liver obtained from a local slaughter house, and it was designed as PLP2. Briefly, the liver tissues were rinsed in Hank’s balanced salt solution containing 100 U/mL penicillin and 100 µg/mL streptomycin and divided into 1×1 mm^3 explants to ensure that all liver cells were able to access the nutrients provided by the medium. Some of these explants were placed in 25 cm^2 tissue flasks in DMEM medium supplemented with 10% fetal bovine serum, 2 mM non-essential amino acids and 100 U/mL penicillin, […] streptomycin and incubated at 37 °C with a humidified atmosphere containing 5% CO2. The medium was changed every two days. Cultivation of the cells was continued with direct monitoring every two or three days using a phase contrast microscope. Before confluence was reached, cells were subcultured and plated in 96-well plates at a density of 1.0 × 10^4 cells/well, and cultivated in DMEM medium with 10% FBS, 100 U/mL penicillin and 100 µg/mL streptomycin [47]. The PLP2 cells were incubated with the squaraine dyes and submitted to the two independent processes—dark and irradiation—as described earlier for the human tumor cell lines. The SRB assay was performed according to the procedure previously described. The results were expressed in GI50 values. All the assays were performed in duplicate. Ellipticine was used as standard.
# [8] = system: HeLa, HepG2, MCF-7 and NCI-H460 cell lines; experiment: SRB growth inhibition across the human tumor cell line panel, dark vs irradiation (text summaries); format: cell-based; conditions: for GI50: Homo sapiens; for Difference between growth inhibition percentages upon illumination and in the dark: dye 0.3 μM, range over the cell lines
# Description: In this representative example, the growth inhibition in the dark was less than 20% in more than 75% of the assays.
# as §1, §2, §3
# [9] = NCI-H460, light or radiation study, 0.5 h, Irradiated 30 min, halogen/tungsten lamp >500 nm
# [10] = HepG2, light or radiation study, 0.5 h, Irradiated 30 min, halogen/tungsten lamp >500 nm
# [11] = light or radiation study, 0.5 h, Irradiated 30 min, halogen/tungsten lamp >500 nm
# [12] = MCF7, light or radiation study, 0.5 h, Irradiated 30 min, halogen/tungsten lamp >500 nm
# [13] = light or radiation study, irradiated, range over cell lines, stated jointly for 5a and 5b, read-out: GI50 upon illumination, range over all the cell lines tested
SMILES,melting point [°C],Φ∆ (singlet oxygen generation quantum yield) [1],ΦF (fluorescence quantum yield) [2],"GI50 [3, 9] [nM]","GI50 ([3]; NCI-H460, Dark) [nM]","GI50 [4, 10] [nM]","GI50 ([4]; HepG2, Dark) [nM]",GI50 ([5]; Dark) [nM],"GI50 [5, 11] [nM]","GI50 [6, 12] [nM]","GI50 ([6]; MCF7, Dark) [nM]",GI50 ([7]; Dark) [nM],GI50 ([7]; Irradiated 30 min) [nM],"GI50 [8, 13] [nM]",Difference between growth inhibition percentages upon illumination and in the dark [8],"GI50 ([8]; HeLa, dark, inactive within the range of concentrations used, read-out: GI50 in the dark, all cell lines with exception of HeLa) [nM]"
"CCN1C(=CC2=C(N)C(=Cc3sc4cc(I)ccc4[n+]3CC)C2=O)Sc2cc(I)ccc21.[I-] [Dye 5a, 2-[2-Amino-3-(3-ethyl-6-iodo-3H-benzothiazol-2-ylidenemethyl)-4-oxocyclobut-2-enylidenemethyl]-3-ethyl-6-iodobenzothiazol-3-ium iodide]",> 300,0.22,0.02,190 ± 20,15300 ± 800,80 ± 1,20000 ± 2000,2540 ± 20,4 ± 0.1,10 ± 1,15000 ± 1000,17500 ± 100,2000 ± 100,4 to 190,46–68%,–
"CCN1C(=CC2=C(NCCO)C(=Cc3sc4cc(I)ccc4[n+]3CC)C2=O)Sc2cc(I)ccc21.[I-] [Dye 5d, 3-Ethyl-2-{3-(3-ethyl-6-iodo-3H-benzothiazol-2-ylidenemethyl)-2-[(2-hydroxy-ethyl)amino]-4-oxocyclobut-2-enylidenemethyl}-6-iodobenzothiazol-3-ium iodide]",> 300,0.19,0.11,890 ± 10,> 25000,380 ± 30,> 25000,1800 ± 100,190 ± 10,250 ± 40,> 25000,> 25000,980 ± 20,–,–,> 25000
"CCN1C(=CC2=C([O-])C(=Cc3sc4cc(I)ccc4[n+]3CC)C2=O)Sc2cc(I)ccc21 [Dye 3, 4-[(3-Ethyl-6-iodobenzothiazol-3-ium-2-yl)methylidene]-2-[(3-ethyl-6-iodo-3H-benzothiazol-2-ylidene)methyl]-3-oxocyclobut-1-en-1-olate]",> 300,0.05,0.03,–,–,–,–,–,–,–,–,–,–,–,–,–
"CCN1C(=CC2=C(N(C)CCO)C(=Cc3sc4cc(I)ccc4[n+]3CC)C2=O)Sc2cc(I)ccc21.[I-] [Dye 5e, 3-Ethyl-2-{3-(3-ethyl-6-iodo-3H-benzothiazol-2-ylidenemethyl)-2-[(2-hydroxy-ethyl)methylamino]-4-oxocyclobut-2-enylidenemethyl}-6-iodobenzothiazol-3-ium iodide]",> 300,0.16,0.09,240 ± 30,13000 ± 1000,190 ± 10,11400 ± 900,2100 ± 200,190 ± 20,230 ± 20,9600 ± 200,11900 ± 200,420 ± 10,–,–,–
"CCN1C(=CC2=C(NC)C(=Cc3sc4cc(I)ccc4[n+]3CC)C2=O)Sc2cc(I)ccc21.[I-] [Dye 5b, 3-Ethyl-2-[3-(3-ethyl-6-iodo-3H-benzothiazol-2-ylidenemethyl)-2-(methylamino)-4-oxocyclobut-2-enylidenemethyl]-6-iodobenzothiazol-3-ium iodide]",> 300,0.26,0.03,180 ± 70,8100 ± 900,60 ± 1,15000 ± 2000,1200 ± 100,11 ± 10,10 ± 1,10000 ± 700,5700 ± 600,30 ± 1,4 to 190,43–73%,–
"CCN1C(=CC2=C(N(CCO)CCO)C(=Cc3sc4cc(I)ccc4[n+]3CC)C2=O)Sc2cc(I)ccc21.[I-] [Dye 5c, 3-Ethyl-2-{3-(3-ethyl-6-iodo-3H-benzothiazol-2-ylidenemethyl)-2-[bis(2-hydroxy-ethyl)amino]-4-oxocyclobut-2-enylidenemethyl}-6-iodobenzothiazol-3-ium iodide]",> 300,0.09,0.01,980 ± 40,23000 ± 2000,260 ± 30,23000 ± 2000,2000 ± 100,310 ± 30,420 ± 60,> 25000,22000 ± 900,440 ± 10,–,–,–
